Measurements reported in US4256765A, “Novel hydroxamic acid compounds, method for preparation thereof and medicaments containing such compounds” (priority 1978, dated 1981).

Experiments:
[1] = clinical study of urolithiasis; cited from earlier work
[2] = test system: Salmonela typhimurium TA-98 and TA-100; assay: Mutagenic activity in microbial tests; type: cell-based, Salmonella typhimurium
Description: The screening of mutagenicity was carried out according to Ames test [Refer to Ames B. N. et al.: Proc: Natl. Acad. Sci. U.S.A., 72, 979-983 (1975)] which is now widely utilized all over the world as an examination for detection of mutagenicity.
Using the strain of Salmonela typhimurium TA-98 and TA-100 as the test bacteria, the mutageic activity was examined for the test compounds untreated with S-9 (9,000×g supernatant fraction of the rat liver homogenate induced with PCB) and the test compounds treated with S-9, respectively. The examined concentration of the test compounds was up to 40,000 μg/ml. Dimethyl sulfoxide (DMSO) was used as solvent.
The result of examination was judged to be positive, when the number of reverse mutation colony was twice comparing with the control group and the positive correlation between dosage and mutagenic activity of the test compound was recognized.

[3] = target: T1, Urease extracted and purified from sword bean (Canavalia gladiata, UniProt A0AAN9R4W0); assay: Urease inhibitory activity (I50), method of Kobashi et al.; type: biochemical; settings: read-out: Urease-inhibitory activity I50
T1 construct: nickel homohexamer by analogy with jack bean urease
Description: (1) Measurement of urease inhibitory activity of test compounds
Urease was extracted and purified from sword bean and molar concentrations of the test compounds causing 50% inhibition of urease activity (I50) were determined by the method of Kobashi et al. [Refer to Biochim, Biophys. Acta 227, 429-441 (1971).]

[4] = Urinary excretion in rats; type: in vivo, SD strain male rats; settings: rat, po; 100 mg/Kg orally, SD male rats, urine excreted within 24 hours; read-out: Urinary excretion (%) (mean value ± S. E.)
Description: (2) Measurement of urinary excretion in rats
100 mg/Kg of the test compounds were administered orally to the SD strain male rats weighing about 300 g, and urine specimens excreted within 24 hours were collected by cross-over method. Amounts of the test compounds in urine were determined according to the method of Kobashi et al. [Refer to Yakugaku Zasshi 93 (12), 1564-1572 (1973); J. Biochem. 83, 287-293 (1973).]

[5] = test system: Proteus mirabilis (OM-1); assay: Inhibitory effect on calculus formation in urine; type: cell-based; settings: for inhibition of the calculus formation in urine (in words): Proteus mirabilis (OM-1) inoculated to normal human urine; for inhibition at 200 µM / inhibition at 1000 µM: Proteus mirabilis, 8 h, normal human urine, read-out: Inhibitory rate of calculus formation (%) (mean value ± S. E.) 8 hours after inoculation; for inhibition at 200 µM: 2 × 10^-4 M test compound; for inhibition at 1000 µM: 10^-3 M test compound
Description: (§1) To 18 ml of normal human urine was added each test compound to make 10^-3 M and 2×10^-4 M test solution in a final concentration.
(§2) On the other hand, distilled water was added to 18 ml of normal human urine instead of the test compound to make a blank solution.
(§3) To the solution was inoculated intact Proteus mirabilis (OM-1) to make a cell suspension of 2.75×10^5 cells/ml and harvested at 37° C. Before inoculation and at 8 hours after inoculation, the pH values of the solution were measured.
Inhibitory rate of calculi formation was calculated by measuring the weight of formed calculi.

[6] = Acute toxicity (LD50); type: in vivo; settings: for acute toxicity (in words): rats; for LD50: rat, in vivo
Description: The test compounds were administered orally to SD strain male rats weighing about 270 g and SD strain female rats weighing about 170 g.

[7] = test system: Proteus mirabilis (OM-1); assay: Inhibitory effect on alkalization of urine; type: cell-based; settings: for pH value (mean value ± S. E.) 8 hours after inoculation: normal human urine, Proteus mirabilis 2.75×10^5 cells/ml, 37° C.; for inhibition of the alkalization of urine (in words): Proteus mirabilis (OM-1) inoculated to normal human urine
Description: as §1, §2, §3

T1 sequence (A0AAN9R4W0 entry or part of it): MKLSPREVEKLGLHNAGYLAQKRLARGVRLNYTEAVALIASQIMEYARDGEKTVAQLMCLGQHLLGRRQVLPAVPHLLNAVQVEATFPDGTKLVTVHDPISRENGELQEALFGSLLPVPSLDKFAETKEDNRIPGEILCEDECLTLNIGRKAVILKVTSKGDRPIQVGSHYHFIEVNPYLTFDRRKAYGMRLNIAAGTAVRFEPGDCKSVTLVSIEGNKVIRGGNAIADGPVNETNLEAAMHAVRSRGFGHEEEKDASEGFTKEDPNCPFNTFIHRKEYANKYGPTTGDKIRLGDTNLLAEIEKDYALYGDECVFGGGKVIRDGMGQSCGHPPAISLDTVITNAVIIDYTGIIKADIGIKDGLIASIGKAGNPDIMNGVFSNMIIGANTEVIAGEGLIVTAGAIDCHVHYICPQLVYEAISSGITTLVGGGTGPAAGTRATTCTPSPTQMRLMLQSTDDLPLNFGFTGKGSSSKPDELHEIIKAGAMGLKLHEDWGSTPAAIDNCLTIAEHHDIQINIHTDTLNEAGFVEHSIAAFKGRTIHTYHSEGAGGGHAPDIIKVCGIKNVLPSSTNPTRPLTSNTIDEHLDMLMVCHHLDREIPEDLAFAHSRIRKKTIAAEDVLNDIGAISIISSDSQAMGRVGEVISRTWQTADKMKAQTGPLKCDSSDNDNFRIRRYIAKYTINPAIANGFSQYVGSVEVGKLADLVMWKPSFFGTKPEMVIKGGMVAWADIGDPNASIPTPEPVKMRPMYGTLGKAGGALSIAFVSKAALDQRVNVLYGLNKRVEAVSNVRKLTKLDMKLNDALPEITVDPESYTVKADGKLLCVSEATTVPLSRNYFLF

For CC(=O)NO [CH3 CONHOH, Acetohydroxamic acid], the “decreasing the amount of ammonia in urine and preventing the alkalization of urine (in words)” value [1] is listed as “effective” and the “mutagenic activity (in words)” value [2] is listed as “have the mutagenic activity”.

In the case of COc1ccc(C(=O)NCC(=O)NO)cc1 [2-(para-methoxybenzamide)-acetohydroxamic acid], the “mutagenic activity (in words)” value [2] is reported as “show mutagenecity”.

In the case of CC(=O)Nc1cccc(C(=O)NCC(=O)NO)c1 [2-(meta-acetylaminobenzamide)-acetohydroxamic acid], the “mutagenic activity (in words)” value [2] is reported as “show mutagenecity”.

For COc1cccc(C(=O)NCC(=O)NO)c1 [2-(meta-methoxybenzamide)-acetohydroxamic acid], the “mutagenic activity (in words)” value [2] was “show mutagenecity”.

With CCC(CC)C(=O)NCC(=O)NO [Compound B, N-(2-ethyl-n-butyloyl)-glycinohydroxamic acid] the IC50 [3] was 790 nM, the dose excreted at 24 h [4] was 5.37 ± 0.852% and the “inhibition of the calculus formation in urine (in words)” value [5] was “inhibited”. The inhibition at 200 µM [5] was 93.7 ± 1.6%, the inhibition at 1000 µM [5] was 95.7% and the “acute toxicity (in words)” value ([6]; oral) was “low”. The LD50 ([6]; po) was greater than 9000 mg/kg, the “pH value (mean value ± S. E.) 8 hours after inoculation” value (“pH value (mean value ± S. E.) 8 hours” below) ([7]; 2 × 10^-4 M test compound) was 7.24 ± 0.04 and the “pH value (mean value ± S. E.) 8 hours” value ([7]; 10^-3 M test compound) was 6.14 ± 0.01. The “inhibition of the alkalization of urine (in words)” value [7] was “inhibited the alkalization of urine”.

For O=C(CNC(=O)c1ccc(Cl)cc1)NO [Benurestat, 2-(para-chlorobenzamide)-acetohydroxamic acid], the “mutagenic activity (in words)” value [2] was “have the mutagenic activity”.

With CC(C)(C)C(=O)NCC(=O)NO [Compound A, N-(pivaloyl)-glycinohydroxamic acid] the IC50 [3] was 4380 nM, the dose excreted at 24 h [4] was 14.6 ± 1.82% and the “inhibition of the calculus formation in urine (in words)” value [5] was “inhibited”. The inhibition at 200 µM [5] was 50 ± 5.2%, the inhibition at 1000 µM [5] was 82 ± 8.2% and the “acute toxicity (in words)” value ([6]; oral) was “low”. For the same molecule, the LD50 ([6]; oral, SD male and female rats) was greater than 9000 mg/kg, the “pH value (mean value ± S. E.) 8 hours” value ([7]; 2 × 10^-4 M test compound) was 8.41 ± 0.007 and the “pH value (mean value ± S. E.) 8 hours” value ([7]; 10^-3 M test compound) was 7.33 ± 0.09. For the same molecule, the “inhibition of the alkalization of urine (in words)” value [7] was “inhibited the alkalization of urine”.

With CCC(C)C(=O)NCC(=O)NO (racemic) [Compound C, N-(DL-2-methyl-n-butyloyl)-glycinohydroxamic acid] the IC50 [3] was 1290 nM, the dose excreted at 24 h [4] was 9.25 ± 2.16% and the “acute toxicity (in words)” value ([6]; oral) was “low”. It also gave an LD50 ([6]; oral, SD male and female rats) greater than 9000 mg/kg.

With O=C(CNC(=O)c1ccco1)NO [2-(2-furoylamino)-acetohydroxamic acid] the “mutagenic activity (in words)” value [2] was “show mutagenecity”.
